In ChEMBL document CHEMBL1149146, “Synthesis and biological evaluation of new 1,2-dihydro-4-hydroxy-2-oxo-3-quinolinecarboxamides for treatment of autoimmune disorders: structure-activity relationship” (2004):

What was measured:
Assay type in all cases: functional
[1] = test system: Mus musculus; assay: Inhibition of acute experimental autoimmune encephalomyelitis in SJL/N mice by 1 mg/kg/day p.o./s.c.; details: route oral
[2] = test system: Mus musculus; assay: Inhibition of acute experimental autoimmune encephalomyelitis in SJL/N mice by 0.2 mg/kg/day p.o./s.c.; details: po
[3] = test system: Mus musculus; assay: Inhibition of acute experimental autoimmune encephalomyelitis in SJL/N mice by 5 mg/kg/day p.o./s.c.; details: route oral
[4] = test system: Mus musculus; assay: Inhibition of acute experimental autoimmune encephalomyelitis (aEAE) induced in SJL/N mice at a dose of 1 mg/kg/day, (po)
[5] = test system: Mus musculus; assay: Inhibition of acute experimental autoimmune encephalomyelitis in SJL/N mice by 5 mg/kg/day p.o.; details: route oral
[6] = test system: Mus musculus; assay: Inhibition of acute experimental autoimmune encephalomyelitis in SJL/N mice by 0.2 mg/kg/day p.o.; details: route oral
[7] = test system: Mus musculus; assay: Inhibition of acute experimental autoimmune encephalomyelitis (aEAE) induced in SJL/N mice at a dose of 0.2 mg/kg/day, (po) was determined; Inactive
[8] = test system: Mus musculus; assay: Inhibition of acute experimental autoimmune encephalomyelitis (aEAE) induced in SJL/N mice at a dose of 5 mg/kg/day, (sc) was determined; Inactive

SMILES | inhibition in vivo at 1 mg/kg/day [1] [%] | inhibition in vivo at 0.2 mg/kg/day [2] [%] | inhibition in vivo at 5 mg/kg/day [3] [%] | inhibition in vivo at 1 mg/kg/day [4] [%] | inhibition in vivo at 5 mg/kg/day [5] [%] | inhibition in vivo at 0.2 mg/kg/day [6] [%] | other results
COc1cccc2c1c(O)c(C(=O)N(C)c1ccc(Cl)cc1)c(=O)n2C | 70 | 77 | 89 | – | – | – | –
COc1cccc2c1c(O)c(C(=O)N(C)c1cc(F)ccc1F)c(=O)n2C | – | – | – | 90 | 95 | 62 | –
COc1ccc(N(C)C(=O)c2c(O)c3c(OC)cccc3n(C)c2=O)cc1 | – | – | – | 84 | – | 78 | –
CN(C(=O)c1c(O)c2cc(OC(F)(F)F)ccc2n(C)c1=O)c1ccccc1 | 72 | 63 | 96 | – | – | – | –
CCN(C(=O)c1c(O)c2c(C(F)(F)F)cccc2n(C)c1=O)c1ccccc1 | – | – | – | 80 | – | 49 | –
CSc1cccc2c1c(O)c(C(=O)N(C)c1ccccc1)c(=O)n2C | – | – | – | 100 | 100 | 94 | –
CCc1cccc2c1c(O)c(C(=O)N(CC)c1ccccc1)c(=O)n2C [PAQUINIMOD] | – | – | – | 100 | – | 81 | –
CN(C)c1cccc2c1c(O)c(C(=O)N(C)c1ccccc1)c(=O)n2C | – | – | – | 93 | 100 | 58 | –
CC(C)N(C(=O)c1c(O)c2c(Cl)cccc2n(C)c1=O)c1ccccc1 | – | – | – | 54 | 70 | – | inhibition in vivo at 0.2 mg/kg/day [7]: < 35%
COc1cccc2c1c(O)c(C(=O)N(C)c1cccc(Cl)c1)c(=O)n2C | – | – | – | 85 | 71 | 54 | –
CCN(C(=O)c1c(O)c2c3c(ccc2n(C)c1=O)OCO3)c1ccccc1 | – | – | – | 75 | 99 | 58 | –
COc1cccc2c1c(O)c(C(=O)N(C)c1cccc(C(C)(C)C)c1)c(=O)n2C | – | – | – | 60 | 84 | 38 | –
CN(C(=O)c1c(O)c2c([N+](=O)[O-])cccc2n(C)c1=O)c1ccccc1 | – | – | – | 96 | 100 | 46 | –
CN(C(=O)c1c(O)c2cc(F)ccc2n(C)c1=O)c1ccc(F)cc1 | 77 | – | 93 | – | – | – | –
CCCN(C(=O)c1c(O)c2c(Cl)cccc2n(C)c1=O)c1ccccc1 | – | – | – | 94 | 100 | 49 | –
Cc1ccc2c(c1)c(O)c(C(=O)N(C)c1ccccc1)c(=O)n2C | 79 | 62 | 100 | – | – | – | –
COc1cccc2c(O)c(C(=O)N(C)c3ccccc3)c(=O)n(C)c12 | – | – | – | – | – | – | inhibition in vivo at 5 mg/kg/day [8]: < 35%
COc1ccc2c(c1)c(O)c(C(=O)N(C)c1ccccc1)c(=O)n2C | 100 | 83 | 100 | – | – | – | –
CCN(C(=O)c1c(O)c2c(Cl)cccc2n(C)c1=O)c1ccccc1 [LAQUINIMOD] | 92 | 66 | 96 | – | – | – | –
COc1cccc2c1c(O)c(C(=O)N(C)c1c(F)cccc1F)c(=O)n2C | – | – | – | 43 | – | 28 | –
CN(C(=O)c1c(O)c2cc(Cl)ccc2n(C)c1=O)c1ccccc1 | 100 | 81 | 100 | – | – | – | –
COc1ccc2nc(O)c(C(=O)N(C)c3ccc(F)cc3)c(O)c2c1 | – | – | – | – | – | – | inhibition in vivo at 5 mg/kg/day [8]: < 35%
Cc1cccc2c1c(O)c(C(=O)N(C)c1ccccc1)c(=O)n2C | 100 | 95 | 97 | – | – | – | –

SMILES | inhibition in vivo at 1 mg/kg/day [1] [%] | inhibition in vivo at 0.2 mg/kg/day [2] [%] | inhibition in vivo at 5 mg/kg/day [3] [%] | inhibition in vivo at 1 mg/kg/day [4] [%] | inhibition in vivo at 5 mg/kg/day [5] [%] | inhibition in vivo at 0.2 mg/kg/day [6] [%] | other results
CN(C(=O)c1c(O)c2c(Cl)cccc2n(C)c1=O)c1ccccc1 | 99 | 91 | 100 | – | – | – | –
CN(C(=O)c1c(O)c2ccccc2n(-c2ccccc2)c1=O)c1ccccc1 | – | – | – | – | – | – | inhibition in vivo at 5 mg/kg/day [8]: < 35%
COc1cccc2c1c(O)c(C(=O)N(C)c1ccccc1)c(=O)n2C | 95 | 79 | 96 | – | – | – | –
C=CCN(C(=O)c1c(O)c2c(Cl)cccc2n(C)c1=O)c1ccccc1 | – | – | – | 59 | 81 | – | –
CCN(C(=O)c1c(O)c2cc(OC)ccc2n(C)c1=O)c1ccccc1 | 37 | 39 | 84 | – | – | – | –
CCN(C(=O)c1c(O)c2c(Br)cccc2n(C)c1=O)c1ccccc1 | – | – | – | 95 | – | 57 | –
COc1cccc(N(C)C(=O)c2c(O)c3c(OC)cccc3n(C)c2=O)c1 | 90 | 35 | 85 | – | – | – | –
COc1cccc2c1c(O)c(C(=O)N(C)c1ccc(C(C)(C)C)cc1)c(=O)n2C | – | – | – | 84 | 98 | 60 | –
CCOc1cccc2c1c(O)c(C(=O)N(C)c1ccccc1)c(=O)n2C | – | – | – | 40 | 76 | 44 | –
COc1cccc2c1c(O)c(C(=O)N(C)c1ccccc1F)c(=O)n2C | – | – | – | 82 | 100 | 94 | –
COc1ccc2c(O)c(C(=O)N(C)c3ccccc3)c(=O)n(C)c2c1 | – | – | – | – | – | – | inhibition in vivo at 5 mg/kg/day [8]: < 35%
CN(C(=O)c1c(O)c2c(C(F)(F)F)cccc2n(C)c1=O)c1ccccc1 | – | – | – | 99 | 100 | – | –
CN(C(=O)c1c(O)c2ccc(Cl)cc2n(C)c1=O)c1ccccc1 | – | – | – | – | – | – | inhibition in vivo at 5 mg/kg/day [8]: < 35%
CCN(C(=O)c1c(O)c2c(OC)cccc2n(C)c1=O)c1ccccc1 | 73 | 69 | 86 | – | – | – | –
COc1cccc2c1c(O)c(C(=O)N(C)c1cccc(Oc3ccccc3)c1)c(=O)n2C | 63 | 47 | 90 | – | – | – | –
COc1cccc2c1c(O)c(C(=O)N(C)c1ccc(F)cc1F)c(=O)n2C | – | – | – | 88 | – | 76 | –
CN(C(=O)c1c(O)c2cc(C(F)(F)F)ccc2n(C)c1=O)c1ccccc1 | 100 | 67 | 100 | – | – | – | –
CCN(C(=O)c1c(O)c2c(F)cccc2n(C)c1=O)c1ccccc1 | – | – | – | 60 | – | – | –
CN(C(=O)c1c(O)c2ccc(Oc3ccccc3)cc2n(C)c1=O)c1ccc(F)cc1 | – | – | – | – | – | – | inhibition in vivo at 5 mg/kg/day [8]: < 35%
CN(C(=O)c1c(O)c2cccc(C(F)(F)F)c2n(C)c1=O)c1ccc(Cl)cc1Cl | – | – | – | – | – | – | inhibition in vivo at 5 mg/kg/day [8]: < 35%
CCN(C(=O)c1c(O)c2cc(C(F)(F)F)ccc2n(C)c1=O)c1ccccc1 | – | – | – | 57 | – | – | inhibition in vivo at 0.2 mg/kg/day [7]: < 35%
CCN(C(=O)c1c(O)c2c(SC)cccc2n(C)c1=O)c1ccccc1 | – | – | – | 73 | 99 | 51 | –
COc1cccc2c1c(O)c(C(=O)N(C)c1ccc(F)cc1)c(=O)n2C | – | 92 | 93 | – | – | – | –
